In patent US7067254B2, “Diagnosis and treatment of inflammation and hyperactive immune conditions” (Board of Regents, The University of Texas System, priority 2001, dated 2006):

Legend:
bone marrow-derived DC [1] = assay: ATP-mediated cytolysis of bone marrow-derived DC (cell viability, 7-AAD staining); assay type: cell-based, mouse
Text: (§1) FIGS. 6A, 6B, & 6C. P2Y receptor desensitization in CD39^−/− DC. […] (FIG. 6C), CD39^−/− or CD39^+/+ DC were pre-treated with apyrase or buffer alone and then examined for ATP-mediated activation responses. Data shown are the means±s.d. (n=3) of cell viability (left), IL-6 production (middle), and LY uptake (right). Statistically, significant differences are indicated by asterisks (** P<0.01).
(§2) Measurement of ATP responsiveness.

bone marrow-derived DC [2] = assay: ATP-induced IL-6 secretion by bone marrow-derived DC (ELISA); assay type: cell-based, mouse
Text: as §1, §2

bone marrow-derived DC [3] = assay: ATP-induced pore formation in bone marrow-derived DC (lucifer yellow uptake); assay type: cell-based, mouse; conditions: 3 mM ATP, 15 min
Text: as §1, §2

[4] = Inflammatory skin responses to locally administered ATP; assay type: in vivo, mouse
Pam 212 keratinocytes [5] = assay: LDH release from Pam 212 keratinocytes (CytoTox 96 assay kit); assay type: cell-based, mouse
Method: (§3) FIGS. 3A, 3B, & 3C. […] (FIG. 3A), Pam 212 keratinocytes were treated with croton oil (CO), benzalkonium chloride (BAC), or ethyl phenylpropiolate (EPP) at the indicated concentrations or exposed to UVB irradiation at the indicated doses. […] (FIG. 3C), Pam 212 keratinocytes and XS52 LC were co-cultured at the indicated cell densities and treated for 10 min with PBS alone or with 0.0015% BAC. All data shown in this figure are representative sets of results (mean±SD, n=3) from three independent experiments. * p<0.05; ** p<0.01 (two-tailed Student's t-test).
(§4) ATP and ADP released by endothelial cells and platelets are known to act as pro-inflammatory mediators in the vascular system.

[6] = mouse, in vivo
Text: (§5) FIGS. 4A, 4B, 4C, 4D, 4E, 4F, 4G, & 4H. Irritant contact hypersensitivity responses in CD39-deficient mice. CD39^−/− mice (circles), CD39^+/− mice (triangles) or CD39^+/+ mice (squares) received topical application of 1% croton oil (FIG. 4A), 10% BAC (FIG. 4B), or 30% EPP (FIG. 4C) on the right ear and vehicle alone on the left ear. […] Statistical significant differences compared to the CD39^+/+ mice or to the CD39^+/− mice are indicated by asterisks or sharps, respectively (*^/# p<0.05 and **^/## p<0.01; two-tailed Student's t test). FIG. 4D, Ear skin samples were harvested from CD39^+/+ or CD39^−/− mice 5 days after topical application of vehicle alone or 1% CO and processed to histological analyses after H&E staining (original magnification: ×250). FIG. 4E, CD39^−/− mice (n=6) or C57BL/6 wild-type mice (n=10) (FIG. 4F) received local injections of apyrase on the right ear (closed circles) or PBS alone on the left ear (open circles) before and after topical application of 1% CO on both ears. The data shown are the mean±SEM of the swelling responses (the ear thickness after CO application minus the baseline thickness before application) at the indicated time points. Statistical significant differences (one-tailed Student's t-test) are indicated by asterisks (*p<0.05 and **p<0.01). […]

Pam 212 keratinocytes [7] = assay: ATP and ADP release from Pam 212 keratinocytes after skin irritant chemicals (luciferin-luciferase, pyruvate kinase); assay type: cell-based, mouse; conditions: for ATP and ADP levels in culture supernatants: Pam 212 keratinocytes, 10 min incubation; for ATP release from Pam 212 keratinocytes: in vitro treatment, ATP in culture supernatants
Method: as §3
As the amount of ATP is directly proportional to the light emitted, quantification of the emitted light provides a measure of the amount of ATP. […] Cellular ATP release is then measured by: obtaining cells growing in culture; replacing the culture medium with a buffer; adding the ATP releasing agent (chemical irritant or a modulator of an NTPDase-mediated immune response); obtaining a sample of the buffer surrounding the cells after allowing sufficient time for ATP release by the cell in response to the irritant or modulator of an NTPDase-mediated immune response; adding luciferin and luciferase to this buffer; and quantitating the light released using a luminometer. A negative control can comprise obtaining the same reading with no cells; and/or obtaining the same reading with no added ATP releasing agent. The data are then analyzed by comparing to the standard ATP curve. Generally the cells in such assays may be grown in a multi-well format.
Additionally, the release of ADP into culture media can be measured by the pyruvate kinase-mediated conversion to ATP. This enzymatic assay utilizes pyruvate kinase (PK) which catalyzes the following reaction: Phospho(enol)pyruvate+ADP→Pyruvate+ATP
as §4

IA+ epidermal cells = assay: LC emigration: surface densities of IA+ epidermal cells after local injection of TNFα; assay type: in vivo, mouse; conditions: CD39+/+ mice; local injection 100 ng/animal, 48 hr
Text: FIGS. 5A, 5B, 5C, 5D, 5E, 5F, 5G, & 5H. Attenuated immune responses in CD39-deficient mice. […] The data shown are the means±s.e.m. (n=10) of the swelling responses. […] (FIG. 5C) Mice received local injection of TNFα and examined for surface densities of IA^+ epidermal cells (means±s.d., n=3). At 24 hr after topical application of FITC, the DLN were examined for the numbers of migratory LC (means±s.d., n=3) (FIG. 5D) localization of FITC^+ migratory LC after counter-staining of the B cell areas with PE-conjugated B220 mAb (FIG. 5E), and for the surface phenotype of FITC^+ migratory LC (FIG. 5F). Closed and open histograms represent the staining profiles with the indicated mAb and control IgG, respectively. Numbers in the parentheses indicate the mean fluorescence intensities (MFI). (FIG. 5G), Migratory LC isolated from OX-painted CD39^−/− mice (circles) or CD39^+/+ mice (squares) were co-cultured with OX-reactive, wild-type T-cells. The data shown are the means±s.d. (n=3) of interferon-γ (IFN-γ) concentrations in the culture supernatants (* P<0.05). (FIG. 5H), Bone marrow-derived DC generated from CD39^−/− mice (circles) or CD39^+/+ mice (squares) were pulsed with TNBS and injected into CD39^+/+ mice. […]
Measurement of DC function. […] Maturational states of migratory LC were assessed by the surface expression of CD86 and CD40 by the FITC^+ populations in DLN. […]

[8] = Local apyrase injection in croton oil-induced ear swelling; assay type: in vivo, mouse
Text: as §5

cytotoxic T-cells = conditions: cited from earlier work
endothelial cells = conditions: soluble apyrase added in the medium; Imai et al., 2000; cited from earlier work

With `Nc1ncnc2c1ncn2[C@@H]1O[C@H](COP(=O)(O)OP(=O)(O)OP(=O)(O)O)[C@@H](O)[C@H]1O` [ATP, adenosine triphosphate] the “ATP concentration that killed DC significantly” value (bone marrow-derived DC [1]; CD39+/+ DC, 60 min incubation) was 2.5 mM, the “ATP concentration up to which DC were resistant to cytolysis” value (bone marrow-derived DC [1]; CD39−/− DC, 60 min incubation) was “up to 10 mM” and the “IL-6 secretion in response to ATP” value (bone marrow-derived DC [2]; CD39+/+ vs CD39−/− DC, 1 mM ATP, 16 hr) was “CD39^+/+ DC, but not CD39^−/− DC, secreted IL-6”. The “ATP-induced pore formation (lucifer yellow uptake) in CD39−/− DC” value (bone marrow-derived DC [3]) was “intact nucleotide responsiveness” and the “inflammatory skin responses in CD39−/− mice” value [4] was “markedly elevated inflammatory skin responses”.
With benzalkonium chloride the “release of lactate dehydrogenase (LDH)” value (Pam 212 keratinocytes [5]) was “caused rapid release of lactate dehydrogenase (LDH)”, the “ear swelling responses in CD39−/− mice compared with CD39+/+ mice” value [6] was “amplified significantly” and the “ATP and ADP levels in culture supernatants” value (Pam 212 keratinocytes [7]) was “detected at comparable levels”. For the same molecule, the “ATP release from Pam 212 keratinocytes” value (Pam 212 keratinocytes [7]) was “triggered rapid ATP release in a time- and dose-dependent manner”.
For TNFα, the “reduction in surface densities of IA+ epidermal cells” value (IA+ epidermal cells) was “about 50%”.
With `CCOC(=O)C#Cc1ccccc1` [ethyl phenylpropiolate] the “release of lactate dehydrogenase (LDH)” value (Pam 212 keratinocytes [5]) was “caused rapid release of lactate dehydrogenase (LDH)”, the “ear swelling responses in CD39−/− mice compared with CD39+/+ mice” value [6] was “amplified significantly” and the “ATP and ADP levels in culture supernatants” value (Pam 212 keratinocytes [7]) was “detected at comparable levels”. For the same molecule, the “ATP release from Pam 212 keratinocytes” value (Pam 212 keratinocytes [7]) was “triggered rapid ATP release in a time- and dose-dependent manner”.
For apyrase, the “effect on early phase ear swelling responses to CO in CD39−/− mice” value ([8]; 0.2U/ear s.c. into ear 10 min before and 1 hr after 1% CO painting) was “diminished the extent of early phase responses”, the “effect on CO-induced skin inflammation in wild-type C57BL/6 mice” value ([8]; 0.2U/ear s.c. into ear before and 1 hr after 1% CO painting) was “further reduced the extent of CO-induced skin inflammation” and the “effect of apyrase pre-treatment on susceptibility of CD39−/− DC to ATP-mediated cytolysis” value (bone marrow-derived DC [1]; apyrase 5 U/ml, 10 min before 2.5 mM ATP) was “restored their susceptibility to ATP-mediated cytolysis”. The “effect on cytolytic capacity of cytotoxic T-cells” value (cytotoxic T-cells) was “inhibited partially”, the “effect of apyrase pre-treatment on capacity of CD39−/− DC to secrete IL-6 upon ATP stimulation” value (bone marrow-derived DC [2]; apyrase 5 U/ml, 10 min before 1 mM ATP) was “restored” and the “inhibition of LPS-induced IL-1 secretion” value (endothelial cells) was “can be inhibited”.
